Results reported in patent publication US20240391923A1, “METHIONINE ADENOSYLTRANSFERASE 2A INHIBITOR FOR TREATING MTAP DELETION-TYPE CANCER” (SUZHOU GENHOUSE BIO CO., LTD., priority 2022, published 2024).
Where two headings read alike, the source gives them in different places.

Key:
[1] = tested on: SDMA in HCT116-MTAP-knockout cell line; experiment: Cell symmetric dimethylarginine (SDMA) test, In-cell Western, HCT116-MTAP-knockout; type: cell-based; settings: Homo sapiens, 96 h
[2] = tested on: SDMA in human colon cancer cell line HCT116; experiment: Cell symmetric dimethylarginine (SDMA) test, In-cell Western, HCT116 (MTAP wild-type); type: cell-based; settings: Homo sapiens, HCT-116, 96 h
Outline: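 HCT116 cells treated 4 days at 37° C with compound, top concentration 6 μM, 1:4 dilutions, 6 points, versus DMSO. Fixed cells stained for SDMA with DRAQ5 normalisation; 800/700 nm ratio after background subtraction fitted by non-linear regression for IC50.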

[3] = tested on: HCT116-MTAP-knockout (−/−) cell strain; experiment: Tumor cell proliferation inhibition assay (CellTiter-Glo), HCT116-MTAP-knockout (-/-); type: cell-based; settings: Homo sapiens, 120 h, HCT116-MTAP-knockout (−/−) cells, 5-day treatment
Outline: (§1)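 Growth inhibition is evaluated from cellular ATP measured with CellTiter-Glo once cells have been treated for 5 days. Compounds are added 24 h after seeding as ten threefold dilutions starting at 10 μM, with a separate DMSO treatment group.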

[4] = tested on: DOHH-2 cell strain; experiment: Tumor cell proliferation inhibition assay (CellTiter-Glo), DOHH-2; type: cell-based; settings: Homo sapiens, 120 h, DOHH-2 cells, 5-day treatment
Method: After the HCT116-MTAP-knockout (−/−) cell strain, the HCT116-MTAP wild-type(+/+)-cell strain, the DOHH-2 cell strain, or the Hut-78 cell strain was treated with the test compound for 5 days, the ATP level was measured using a CellTiter-Glo kit of Promega to evaluate the inhibition of the test compound against the growth of the tumor cell strain.
In the present application, the HCT116-MTAP-knockout (−/−) cell strain, the HCT116-MTAP wild-type (+/+)-cell strain, the DOHH-2 cell strain, or the Hut-78 cell strain was seeded into a 96-well cell culture plate at an appropriate cell density. After 24 h, the cells were treated using the test compounds diluted 1:3 fold at the highest concentration of 10 μM for 10 gradients, and a DMSO treatment group was set up separately. The cells were cultured in a 37° C./5% CO2 incubator for 5 days.

[5] = Pharmacokinetic test in rats (IV and PO); type: in vivo; settings: rat, plasma, SD rats; for half-life: read-out: T½ (converted)
[6] = biological target: MAT2A recombinant protein (Homo sapiens, UniProt P31153); experiment: MAT2A inhibitory activity (malachite green colorimetric enzyme assay); type: biochemical
MAT2A recombinant protein, sequence (P31153 whole entry): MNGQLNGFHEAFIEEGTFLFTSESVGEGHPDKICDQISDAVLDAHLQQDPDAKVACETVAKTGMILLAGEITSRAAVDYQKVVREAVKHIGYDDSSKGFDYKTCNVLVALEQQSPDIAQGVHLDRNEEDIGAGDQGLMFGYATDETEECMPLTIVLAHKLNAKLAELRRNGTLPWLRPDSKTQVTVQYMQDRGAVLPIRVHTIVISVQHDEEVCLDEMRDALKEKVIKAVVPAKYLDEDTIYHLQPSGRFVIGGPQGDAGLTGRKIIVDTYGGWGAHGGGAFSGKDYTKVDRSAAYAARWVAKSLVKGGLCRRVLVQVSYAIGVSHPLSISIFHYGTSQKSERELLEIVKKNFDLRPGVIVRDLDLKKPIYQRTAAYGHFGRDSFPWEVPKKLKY
Outline: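 Recombinant human MAT2A with L-methionine and ATP in 50 mM HEPES pH 7.5, 50 mM KCl, 10 mM MgCl2, 10 mM DTT, 60 min at room temperature. Phosphate released detected by malachite green reagent (15 min) at 630 nm. Ten-point 1:3 series from 1000 nM final; IC50 by variable-slope non-linear regression.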

[7] = tested on: HCT116-MTAP wild-type (+/+)-cell strain; experiment: Tumor cell proliferation inhibition assay (CellTiter-Glo), HCT116-MTAP wild-type (+/+); type: cell-based; settings: Homo sapiens, 120 h, HCT116-MTAP wild-type (+/+) cells, 5-day treatment
Outline: as §1

[8] = Pharmacokinetic test in mice (IV and PO); type: in vivo; settings: mouse, plasma, BALB/c mice; for half-life: read-out: T½ (converted)
[9] = biological target: T1, hERG potassium current (Homo sapiens, UniProt Q12809); experiment: hERG inhibition test (whole-cell patch clamp, Qpatch); type: cell-based; settings: initial concentration 30 μM, 6 concentration points
T1 construct: expressed in transfected cells; host or cells: HEK293, cultured under G418 selection
T1 sequence (Q12809 whole entry): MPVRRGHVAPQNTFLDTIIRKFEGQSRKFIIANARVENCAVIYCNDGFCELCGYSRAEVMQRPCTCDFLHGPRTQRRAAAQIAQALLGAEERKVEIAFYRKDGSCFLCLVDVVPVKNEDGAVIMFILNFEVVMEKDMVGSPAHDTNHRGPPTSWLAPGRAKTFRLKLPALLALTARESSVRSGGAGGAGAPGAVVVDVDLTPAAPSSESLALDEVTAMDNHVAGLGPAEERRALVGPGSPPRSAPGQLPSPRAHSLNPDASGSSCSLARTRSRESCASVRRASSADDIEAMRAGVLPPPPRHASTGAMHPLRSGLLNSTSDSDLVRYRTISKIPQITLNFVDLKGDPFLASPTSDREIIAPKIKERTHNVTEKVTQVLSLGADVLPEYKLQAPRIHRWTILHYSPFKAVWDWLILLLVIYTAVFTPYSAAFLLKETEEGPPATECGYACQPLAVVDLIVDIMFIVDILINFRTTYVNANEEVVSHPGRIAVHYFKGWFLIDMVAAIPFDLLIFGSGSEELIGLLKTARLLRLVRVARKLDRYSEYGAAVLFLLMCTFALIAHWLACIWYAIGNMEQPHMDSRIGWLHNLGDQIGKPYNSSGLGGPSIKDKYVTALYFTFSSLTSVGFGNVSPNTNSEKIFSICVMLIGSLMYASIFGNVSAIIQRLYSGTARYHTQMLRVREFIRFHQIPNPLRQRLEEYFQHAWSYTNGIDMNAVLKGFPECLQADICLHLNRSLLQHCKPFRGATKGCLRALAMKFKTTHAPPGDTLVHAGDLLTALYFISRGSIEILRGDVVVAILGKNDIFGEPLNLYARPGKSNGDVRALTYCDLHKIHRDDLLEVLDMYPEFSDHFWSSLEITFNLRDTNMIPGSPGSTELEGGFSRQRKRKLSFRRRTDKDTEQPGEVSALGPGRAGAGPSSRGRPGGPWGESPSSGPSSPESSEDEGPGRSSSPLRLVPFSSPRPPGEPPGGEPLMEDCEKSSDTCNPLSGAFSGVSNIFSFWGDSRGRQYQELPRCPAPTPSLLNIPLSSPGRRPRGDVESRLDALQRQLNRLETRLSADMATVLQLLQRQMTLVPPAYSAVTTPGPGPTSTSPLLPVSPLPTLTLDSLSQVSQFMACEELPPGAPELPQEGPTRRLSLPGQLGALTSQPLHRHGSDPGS
Method: The BEK293 cells were cultured in a DiVEM medium containing […] and 0.8 mg/mL G418 at 37° C. with 5% o CO2. The cells were digested by TrypLE™ Express and centrifuged. The cell density was adjusted to 2×10^6 cells/mL. The cells were gently mixed for 15-20 min using a shaker equilibrated at room temperature, and subjected to patch clamping on a machine. The medium of the prepared cells was replaced with extracellular fluid. The intracellular fluid and the extracellular fluid were taken from the fluid pool, and respectively added to the intracellular fluid pool and the cell and the test substance pool of the QPlate chip. The voltage stimulation of the whole-cell hERG potassium current was recorded by the whole-cell patch clamp, and the test data was collected and stored by Qpatch. The compound was diluted 3-fold at an initial concentration of 30 μM, and 6 concentration points were set, with each drug concentration being set for two administrations over a period of at least 5 min. The current detected in compound-free extracellular fluid for each cell was served as its own control group, and the detection was repeated at least twice independently using two cells per concentration. All electrophysiological experiments were performed at room temperature.
For data analysis, the current acted for each drug concentration and the current of the blank control were standardized
and then the inhibition rate corresponding to each drug concentration was calculated
The mean and standard error were calculated for each concentration, and the half maximal inhibitory concentration of each compound was calculated:
The dose-dependent effect was fitted non-linearly using the above equation, wherein Y represents the inhibition rate, C represents the concentration of the test substance, IC50 is the half maximal inhibitory concentration, and HillSlope represents the Hill coefficient. Curve fitting and calculation of IC50 were performed by Graphpad software.

[10] = Saturation solubility of samples in FaSSIF solution; type: physicochemical; settings: FaSSIF pH 6.5, room temperature overnight
Method: About 0.21 g of sodium hydroxide, about 2.24 g of sodium dihydrogen phosphate dihydrate, and 3.09 g of sodium chloride were weighed out and dissolved in 500 mL of water, and then the pH was adjusted to 6.5 with 1 N sodium hydroxide or 1 N hydrochloric acid. 112 mg of FaSSIF solid was weighed out and placed in a 50 mL volumetric flask, and the above buffer was added for dissolution, diluted to volume, mixed well, and left to stand at room temperature for 2 h or more.
• Test sample: about 1 mg of the test sample was taken, and 1 mL of FaSSIF solution was added. The mixture was stirred at room temperature overnight and centrifuged, and the supernatant was collected and injected for analysis. • Control substance solution: about 1.5 mg of the test sample was precisely weighed out and placed in a 50 mL volumetric flask, and DMF was added for dissolution, diluted to volume, and mixed well.
• Mobile phase A: 1000 mL of purified water was accurately weighed out, 1 mL of formic acid was added, and the mixture was mixed well and degassed with ultrasonic. • Mobile phase B: acetonitrile
The peak of the main component of the control substance and the peak of the test substance consistent with the retention time of the peak of the main component of the control substance were integrated, and the concentration thereof in the FaSSIF solution was calculated according to external standard method.

[11] = tested on: Human colorectal adenocarcinoma cells HCT116-MTAP-KO; experiment: Mouse xenograft tumor pharmacodynamic model, HCT116-MTAP-KO; type: in vivo; settings: PO 200 mg/kg once a day, 28 days of administration
Method: (§2) In this example, the in vivo efficacy of the compound in a mouse xenograft tumor model after intragastric (PO) administration was tested.
Human colorectal adenocarcinoma cells HCT116-MTAP-KO were cultured in monolayer in vitro under the condition of McCoy's 5A medium containing 10% fetal bovine serum and 1% penicillin and streptomycin, and the culture was carried out at 37° C. with 5% CO2. The cells were digested with trypsin three times a week for passaging. When the saturation degree of the cells was 80-90%, the cells were collected, counted and inoculated. 0.1 mL (5×10^6 cells) of HCT116-MTAP-KO cells were subcutaneously inoculated on the right back of each mouse. On day 16 after inoculation of the cells, the mean tumor volume reached 154 mm^3. The mice were randomly grouped for administration and intragastrically dosed once daily. Changes in body weight and tumor volume were recorded. After a certain number of days of administration, the experiment was ended. Tumor volume changes and mouse body weight changes were counted and analyzed. AG270 (CAS: 2201056-66-6) was the positive control compound.

[12] = tested on: Human pancreatic cancer cells KP-4; experiment: Mouse xenograft tumor pharmacodynamic model, KP-4; type: in vivo; settings: KP-4 xenograft, PO 200 mg/kg once a day, 29 days of administration
Method: as §2
Human pancreatic cancer cells KP-4 were cultured in monolayer in vitro under the condition of 1640 medium containing […] and […] and streptomycin, and the culture was carried out at 37° C. with 5% CO2. The cells were digested with trypsin three times a week for passaging. When the saturation degree of the cells was 80-90%, the cells were collected, counted and inoculated. 0.1 mL (5×10^6 cells) of KP-4 cells were subcutaneously inoculated on the right back of each mouse. On day 34 after inoculation of the cells, the mean tumor volume reached 154 mm^3. The mice were randomly grouped for administration and intragastrically dosed once daily. Changes in body weight and tumor volume were recorded. After 29 days of administration, the experiment was ended. Tumor volume changes and mouse body weight changes were counted and analyzed. AG270 (CAS: 2201056-66-6) was the positive control compound.

[13] = IC50 score class, read-out: Cell 96 h SDMA Inhibition (HCT116-MTAP−/−) (score)
[14] = IC50 score class, read-out: Cell 96 h SDMA Inhibition (HCT116-MTAP+/+) (score)
[15] = read-out: Cell 96 h SDMA inhibition (HCT116-MTAP+/+)
[16] = IC50 score, read-out: Tumor cell 5-day relative growth inhibition (HCT116-MTAP−/−) (nM), score
[17] = IC50 value, read-out: Tumor cell 5-day relative growth inhibition (HCT116-MTAP−/−)
[18] = IC50 score, read-out: Tumor cell 5-day relative growth inhibition (DOHH-2) (nM), score
[19] = IC50 value, read-out: Tumor cell 5-day relative growth inhibition (DOHH-2)
[20] = IC50 score class, read-out: MAT2A Inhibition (score)
[21] = read-out: Cell 96 h SDMA Inhibition (HCT116-MTAP−/−)
[22] = IC50 score, read-out: Tumor cell 5-day relative growth inhibition (HCT116-MTAP+/+) (nM), score
[23] = IC50 value, read-out: Tumor cell 5-day relative growth inhibition (HCT116-MTAP+/+)

IC50 [1, 13]	IC50 [2, 14]	IC50 [2, 15]	IC50 [3, 16]	IC50 [3, 17]	IC50 [4, 18]	IC50 [4, 19]	AUC ([5]; IV 1 mg/kg)	bioavailability ([5]; IV 1 mg/kg, PO 5 mg/kg)	half-life ([5]; IV 1 mg/kg)	AUC ([5]; PO 5 mg/kg)	half-life ([5]; PO 5 mg/kg)	IC50 [6, 20]	IC50 ([6]; read-out: MAT2A Inhibition)	IC50 [1, 21]	clearance ([5]; IV 1 mg/kg)	IC50 [7, 22]	IC50 [7, 23]	Molecule	also measured
< 200 nM	> 3000 nM	4280 nM	< 500 nM	228 nM	500 to 2000 nM	940 nM	7.81 µM·h	67%	4.8 min	26 µM·h	58.2 min	–	–	–	–	–	–	CCn1cc2c(n1)c(=O)n(-c1cccnc1)c1cc(Cl)ccc21 [Compound B3]	–
200 to 1000 nM	> 3000 nM	9300 nM	–	–	≥ 2000 nM	–	2.5 µM·h	68%	37.2 min	7.95 µM·h	126 min	< 100 nM	38.8 nM	782 nM	21.7 mL/min/kg	–	–	CCn1cc2c(n1)c(=O)n(-c1cccc(F)c1)c1cc(Cl)ccc21 [Compound B4]	–
< 200 nM	200 to 1000 nM	342 nM	< 500 nM	75 nM	< 500 nM	444 nM	7.6 µM·h	60%	102 min	7.6 µM·h	198 min	–	–	30.5 nM	16 mL/min/kg	< 500 nM	279 nM	COc1ccc(Cn2cc3c(n2)c(=O)n(-c2cccnc2)c2cc(Cl)ccc32)cc1 [Compound B28]	–
< 200 nM	200 to 1000 nM	480 nM	< 500 nM	138 nM	500 to 2000 nM	640 nM	–	–	–	–	–	–	–	76.9 nM	–	500 to 2000 nM	1680 nM	Cn1cc2c(n1)c(=O)n(-c1cccnc1)c1nc(C(F)(F)F)ccc21 [Compound B72]	AUC ([8]; IV 2 mg/kg): 7.43 µM·h; clearance ([8]; IV 2 mg/kg): 12.8 mL/min/kg; half-life ([8]; IV 2 mg/kg): 46.8 min; Vd ([8]; IV 2 mg/kg, read-out: Vz): 0.9 L/kg; AUC ([8]; PO 10 mg/kg): 65 µM·h; half-life ([8]; PO 10 mg/kg): 57 min; IC50 [9]: > 30000 nM
–	–	–	≥ 2000 nM	> 10000 nM	–	–	–	–	–	–	–	< 100 nM	99.4 nM	–	–	≥ 2000 nM	> 10000 nM	Cn1cc2c(n1)c(=O)n(-c1ccc(OC(F)F)cc1)c1nc(C(F)(F)F)ccc21 [Compound B188]	FaSSIF (pH = 6.5) (μg/mL) [10]: 7.4 μg/mL
–	–	–	–	–	–	–	–	–	–	–	–	–	–	–	–	–	–	AG270 [reference compound]	Tumor growth inhibition percentage (TGI) [11]: once a day TGI = 33.82%; Tumor growth inhibition percentage (TGI) [12]: once a day TGI = 57.48%
